Measurements from the supplement of paper PMC10307832.

Tests used:
Test in all cases: relative viability (nuclei count vs DMSO), 5 days (fraction); higher = more cells survive
Trametinib + Lapatinib = compound: CC(=O)Nc1cccc(-n2c(=O)n(C3CC3)c(=O)c3c(Nc4ccc(I)cc4F)n(C)c(=O)c(C)c32)c1 [Trametinib] + CS(=O)(=O)CCNCc1ccc(-c2ccc3ncnc(Nc4ccc(OCc5cccc(F)c5)c(Cl)c4)c3c2)o1 [Lapatinib] (partner 2 µM)
Summary of the method: (§1)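 Nuclei were stained with Hoechst during a one-step fixation (final 0.05% Triton X-100, 1% formaldehyde, 1 ug/ml Hoechst) carried out 5 days after dosing, then counted on 4× images. The cells, lung cancer lines in 1536-well plates, had been dosed by pin tool the day after seeding with one drug alone or a fixed anchor-drug dose plus five library-drug doses (not always all listed) in √10 steps. Relative viability is the nuclei count in treated wells divided by that in vehicle wells, and each value is the median of duplicate plates.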

[1] = compound: CN1C=C(C2=CC=CC=C21)/C=C\3/C4=C(C=CC=N4)NC3=O + CS(=O)(=O)N1CCN(Cc2cc3nc(-c4cccc5[nH]ncc45)nc(N4CCOCC4)c3s2)CC1 [Pictilisib] (partner 1 µM)
Summary of the method: as §1

[2] = compound: CN1C=C(C2=CC=CC=C21)/C=C\3/C4=C(C=CC=N4)NC3=O + C[C@@H](Oc1cc(-c2cnn(C3CCNCC3)c2)cnc1N)c1c(Cl)ccc(F)c1Cl [Crizotinib] (partner 1 µM)
Summary of the method: as §1

[3] = compound: CN1C=C(C2=CC=CC=C21)/C=C\3/C4=C(C=CC=N4)NC3=O + O=C(CCCCCCC(=O)Nc1ccccc1)NO [Vorinostat] (partner 1 µM)
Summary of the method: as §1

Cell Line | relative viability (Trametinib + Lapatinib; first compound 0.0025 µM) | relative viability (Trametinib + Lapatinib; first compound 0.007906 µM) | relative viability (Trametinib + Lapatinib; first compound 0.025 µM) | relative viability (Trametinib + Lapatinib; first compound 0.07906 µM) | relative viability (Trametinib + Lapatinib; first compound 0.25 µM) | relative viability ([1]; first compound 0.02 µM) | relative viability ([1]; first compound 0.06325 µM) | relative viability ([1]; first compound 0.2 µM) | relative viability ([1]; first compound 0.6325 µM) | relative viability ([1]; first compound 2 µM) | relative viability ([2]; first compound 0.02 µM) | relative viability ([2]; first compound 0.06325 µM) | relative viability ([2]; first compound 0.2 µM) | relative viability ([2]; first compound 0.6325 µM) | relative viability ([2]; first compound 2 µM) | relative viability ([3]; first compound 0.02 µM) | relative viability ([3]; first compound 0.06325 µM) | relative viability ([3]; first compound 0.2 µM) | relative viability ([3]; first compound 0.6325 µM) | relative viability ([3]; first compound 2 µM)
NCI-H2347 | 0.961 | 0.56 | 0.503 | 0.435 | 0.452 | 0.527 | 0.704 | 0.572 | 0.438 | 0.658 | 0.588 | 0.802 | 0.607 | 0.694 | 0.674 | 0.585 | 0.659 | 0.582 | 0.493 | 0.517
NCI-H2405 | 0.992 | 0.68 | 0.498 | 0.499 | 0.481 | 0.423 | 0.399 | 0.401 | 0.388 | 0.41 | 0.769 | 0.832 | – | 0.829 | 0.821 | 1.16 | 0.913 | 0.754 | 0.98 | 0.73
NCI-H3122 | 0.995 | 0.737 | 0.699 | 0.584 | 0.501 | 0.597 | 0.541 | 0.5 | 0.563 | 0.632 | 0.226 | 0.231 | 0.275 | 0.29 | 0.28 | 0.767 | 1.06 | 0.734 | 1.02 | 1
PC-3 [JPC-3] | 0.451 | 0.425 | 0.425 | 0.404 | 0.377 | 0.703 | 0.691 | 0.665 | 0.778 | 0.758 | 0.878 | 0.949 | 0.954 | 0.96 | 0.966 | 0.831 | 0.798 | 0.75 | 0.612 | 0.589
PC-14 | 0.27 | 0.194 | 0.182 | 0.192 | 0.192 | 0.573 | 0.662 | 0.881 | 0.635 | 0.691 | 0.91 | 0.791 | 1 | 0.856 | 0.958 | 0.759 | 0.583 | 0.728 | 0.674 | 0.744
RERF-LC-KJ | 0.812 | 0.822 | 0.79 | 0.744 | 0.568 | 0.748 | 0.524 | 0.55 | 0.445 | 0.497 | 0.831 | 0.829 | 0.787 | 0.77 | 0.718 | 0.787 | 0.668 | 0.72 | 0.604 | 0.598
SK-LU-1 | 0.791 | 0.721 | 0.538 | 0.426 | 0.304 | 0.425 | 0.544 | 0.63 | 0.472 | 0.543 | 0.619 | 0.809 | 1.14 | 1.07 | 1.1 | 0.67 | 0.764 | 0.729 | 0.727 | 0.831
SK-MES-1 | 0.447 | 0.39 | 0.352 | 0.362 | 0.344 | 0.338 | 0.308 | 0.346 | 0.342 | 0.302 | 0.972 | 0.84 | 1.03 | 0.976 | 0.967 | 1.07 | 0.995 | 0.864 | 1.07 | 0.984
SW 1573 | 0.875 | 0.925 | 0.769 | 0.82 | 0.56 | 0.474 | 0.489 | 0.51 | 0.532 | 0.521 | 0.727 | 0.832 | 0.816 | 0.712 | 0.874 | 0.73 | 0.656 | 0.787 | 0.8 | 0.882
